Source: US20250333397A1 (REMIX THERAPEUTICS INC., priority 2021, published 2025)
Where two headings read alike, the source gives them in different places.

How the values were obtained:
Assay type in all cases: cell-based, human
[1] = tested on: HTT mRNA; experiment: RT-qPCR splicing assay, HTT canonical (CJ) and alternative (AJ) junction mRNA; details: for AC50: read-out: HTT AJ (AC50, increase in AJ mRNA)
Summary of the method: (§1)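 A673 or K562 cells were treated 24 h at 37 °C with an 11-point 3-fold compound dilution series, top dose 10 uM final, DMSO ≤0.25%. Lysates went to one-step RT-qPCR for canonical (CJ) and alternative-exon (AJ) junctions; ΔCt vs GAPDH, GUSB or PPIA, normalized to DMSO, as 2^(-ΔΔCt).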

[2] = tested on: MYB mRNA; experiment: RT-qPCR splicing assay, MYB canonical (CJ) and alternative (AJ) junction mRNA; details: for AC50: read-out: MYB AJ (AC50, increase in AJ mRNA)
Summary of the method: as §1

[3] = tested on: SMN2 mRNA; experiment: RT-qPCR splicing assay panel, SMN2 canonical junction (CJ) mRNA
Summary of the method: as §1

[4] = tested on: Target C mRNA; experiment: RT-qPCR splicing assay panel, Target C canonical junction (CJ) mRNA
Summary of the method: as §1

[5] = Homo sapiens, 24 h, Table 3A, A673 or K562 cells, 24 h treatment
[6] = Homo sapiens, 24 h, Table 3A, A673 or K562 cells, 24 h treatment, read-out: HTT CJ (IC50, decrease in CJ mRNA)
[7] = Homo sapiens, canonical junction (CJ) mRNA, RT-qPCR panel, Table 4A, read-out: HTT, decrease in CJ mRNA levels, IC50
[8] = Homo sapiens, 24 h, Table 3A, A673 or K562 cells, 24 h treatment, read-out: MYB CJ (IC50, decrease in CJ mRNA)
[9] = Homo sapiens, canonical junction (CJ) mRNA, RT-qPCR panel, Table 4A, read-out: MYB, decrease in CJ mRNA levels, IC50
[10] = Homo sapiens, canonical junction (CJ) mRNA, RT-qPCR panel, Table 4A, read-out: SMN2, decrease in CJ mRNA levels, IC50
[11] = Homo sapiens, canonical junction (CJ) mRNA, RT-qPCR panel, Table 4A, read-out: Target C, decrease in CJ mRNA levels, IC50
[12] = Table 3A, A673 or K562 cells, 24 h treatment
[13] = Homo sapiens, 24 h, Table 3B, A673 or K562 cells, 24 h treatment
[14] = Homo sapiens, 24 h, Table 3B, A673 or K562 cells, 24 h treatment, read-out: HTT CJ (IC50, decrease in CJ mRNA)
[15] = Homo sapiens, Table 4B, gene panel, read-out: HTT (IC50, decrease in CJ mRNA levels)
[16] = Homo sapiens, 24 h, Table 3B, A673 or K562 cells, 24 h treatment, read-out: MYB CJ (IC50, decrease in CJ mRNA)
[17] = Homo sapiens, Table 4B, gene panel, read-out: MYB (IC50, decrease in CJ mRNA levels)
[18] = Homo sapiens, Table 4B, gene panel, read-out: SMN2 (IC50, decrease in CJ mRNA levels)
[19] = Homo sapiens, Table 4B, gene panel, read-out: Target C (IC50, decrease in CJ mRNA levels)

| Structure (SMILES) | IC50 [1, 6] [nM] | IC50 [1, 7] [nM] | IC50 [2, 8] [nM] | IC50 [2, 9] [nM] | IC50 [3, 10] [nM] | IC50 [4, 11] [nM] | AC50 [1, 5] [nM] | AC50 [2, 5] [nM] | also measured |
| --- | --- | --- | --- | --- | --- | --- | --- | --- | --- |
| Cc1nc(-c2ccc(-c3ccc(N4CCC(NC5CCC5)C4)nn3)c(O)c2)cs1 (stereo not shown) [Compound 413] |  |  |  |  |  |  |  |  | AC50 [1, 12]: 1000 to 10000 nM; IC50 ([1]; Table 3A, A673 or K562 cells, 24 h treatment, read-out: HTT CJ (IC50, decrease in CJ mRNA)): 1000 to 10000 nM; IC50 ([1]; canonical junction (CJ) mRNA, RT-qPCR panel, Table 4A, read-out: HTT, decrease in CJ mRNA levels, IC50): 1000 to 10000 nM; AC50 [2, 12]: 1000 to 10000 nM; IC50 ([2]; Table 3A, A673 or K562 cells, 24 h treatment, read-out: MYB CJ (IC50, decrease in CJ mRNA)): 1000 to 10000 nM; IC50 ([2]; canonical junction (CJ) mRNA, RT-qPCR panel, Table 4A, read-out: MYB, decrease in CJ mRNA levels, IC50): 1000 to 10000 nM; IC50 ([3]; canonical junction (CJ) mRNA, RT-qPCR panel, Table 4A, read-out: SMN2, decrease in CJ mRNA levels, IC50): 1000 to 10000 nM; IC50 ([4]; canonical junction (CJ) mRNA, RT-qPCR panel, Table 4A, read-out: Target C, decrease in CJ mRNA levels, IC50): > 10000 nM |
| Cc1ncc2cc(-c3ccc(N4CCC(NC(C)(C)C)C4)nn3)c(O)cc2n1 (stereo not shown) [Compound 818] |  |  |  |  |  |  |  |  | AC50 [1, 13]: > 10000 nM; IC50 [1, 14]: > 10000 nM; IC50 [1, 15]: > 10000 nM; AC50 [2, 13]: > 10000 nM; IC50 [2, 16]: > 10000 nM; IC50 [2, 17]: > 10000 nM; IC50 [3, 18]: > 10000 nM; IC50 [4, 19]: > 10000 nM |
| Cc1nc2cc(O)c(-c3ccc(N4CC[C@H](NC(C)(C)C(C)C)C4)nn3)cc2o1 [Compound 875] |  |  |  |  |  |  |  |  | AC50 [1, 13]: < 100 nM; IC50 [1, 14]: < 100 nM; IC50 [1, 15]: < 100 nM; AC50 [2, 13]: 100 to 1000 nM; IC50 [2, 16]: 100 to 1000 nM; IC50 [2, 17]: 100 to 1000 nM; IC50 [3, 18]: < 100 nM; IC50 [4, 19]: 100 to 1000 nM |
| CCc1ncc(-c2cc(O)c(-c3ccc(N4CCC(NC5CCC5)C4)nn3)cc2F)s1 (stereo not shown) [Compound 442] | > 10000 | > 10000 | > 10000 | > 10000 | 1000 to 10000 | > 10000 | 1000 to 10000 | > 10000 |  |
| Cn1c(=O)oc2cc(-c3ccc(N4CCC(NC(C)(C)C)C4)nn3)c(O)cc21 (stereo not shown) [Compound 800] |  |  |  |  |  |  |  |  | AC50 [1, 13]: 100 to 1000 nM; IC50 [1, 14]: 100 to 1000 nM; IC50 [1, 15]: 100 to 1000 nM; AC50 [2, 13]: 100 to 1000 nM; IC50 [2, 16]: 1000 to 10000 nM; IC50 [2, 17]: 1000 to 10000 nM; IC50 [3, 18]: < 100 nM; IC50 [4, 19]: 100 to 1000 nM |
| Cc1nc2cc(O)c(-c3cnc(N4C[C@@H](C)N[C@@H](C5CC5)C4)nn3)cc2o1 [Compound 870] |  |  |  |  |  |  |  |  | AC50 [1, 13]: 1000 to 10000 nM; IC50 [1, 14]: 1000 to 10000 nM; IC50 [1, 15]: 1000 to 10000 nM; AC50 [2, 13]: 1000 to 10000 nM; IC50 [2, 16]: 1000 to 10000 nM; IC50 [2, 17]: 1000 to 10000 nM; IC50 [3, 18]: 1000 to 10000 nM; IC50 [4, 19]: 1000 to 10000 nM |
| Oc1cc(-c2cc(OC(F)F)ncn2)ccc1-c1ccc(N2CCC(NCC3CC3)C2)nn1 (stereo not shown) [Compound 370] | > 10000 | > 10000 | > 10000 | > 10000 | 100 to 1000 | > 10000 | > 10000 | > 10000 |  |
| COc1cc(-c2ccc(-c3ccc(N4CC[C@H](N[C@H]5C[C@@H](F)C5)C4)nn3)c(O)c2)ncn1 [Compound 407, 5-(6-methoxypyrimidin-4-yl)-2-{6-[(3R)-3-{[(1s,3s)-3-fluorocyclobutyl]amino}pyrrolidin-1-yl]pyridazin-3-yl}phenol] | 100 to 1000 | 100 to 1000 | 100 to 1000 | 100 to 1000 | 100 to 1000 | 100 to 1000 | 100 to 1000 | 100 to 1000 |  |
| Oc1cc(-c2cn[nH]c2)ccc1-c1ccc(N2CCC(NC3(C(F)F)CC3)C2)nn1 (stereo not shown) [Compound 117, 2-[6-(3-{[1-(difluoromethyl)cyclopropyl]amino}pyrrolidin-1-yl)pyridazin-3-yl]-5-(1H-pyrazol-4-yl)phenol] | 1000 to 10000 | 1000 to 10000 | > 10000 | > 10000 | 100 to 1000 | > 10000 | 1000 to 10000 | > 10000 |  |
| COc1cc(-c2ccc(-c3cc(C#N)c(OC4CC(C)(C)NC(C)(C)C4)nn3)c(O)c2)ncn1 [Compound 425] | 100 to 1000 | 100 to 1000 | 1000 to 10000 | 1000 to 10000 | 100 to 1000 | 1000 to 10000 | 1000 to 10000 | 1000 to 10000 |  |
| Cc1ncc(-c2ccc(-c3ccc(N4CCC(NC5CCC5)C4)nn3)cc2F)s1 (stereo not shown) [Compound 344] | 1000 to 10000 | 1000 to 10000 | 1000 to 10000 | 1000 to 10000 | 100 to 1000 | 1000 to 10000 | 1000 to 10000 | 1000 to 10000 |  |
| Cn1cc2cc(-c3cnc(N4CC[C@@H](NC(C)(C)C)C4)nn3)c(O)cc2n1 [Compound 805] |  |  |  |  |  |  |  |  | AC50 [1, 13]: 1000 to 10000 nM; IC50 [1, 14]: 100 to 1000 nM; IC50 [1, 15]: 100 to 1000 nM; AC50 [2, 13]: > 10000 nM; IC50 [2, 16]: 1000 to 10000 nM; IC50 [2, 17]: 1000 to 10000 nM; IC50 [3, 18]: 1000 to 10000 nM; IC50 [4, 19]: 1000 to 10000 nM |

The next lines start with results.

| IC50 [1, 6] [nM] | IC50 [1, 7] [nM] | IC50 [2, 8] [nM] | IC50 [2, 9] [nM] | IC50 [3, 10] [nM] | IC50 [4, 11] [nM] | Structure (SMILES) | AC50 [1, 5] [nM] | AC50 [2, 5] [nM] | also measured |
| --- | --- | --- | --- | --- | --- | --- | --- | --- | --- |
| < 100 | < 100 | 100 to 1000 | 100 to 1000 | < 100 | < 100 | Oc1cc(-c2cn[nH]c2)c(F)cc1-c1ccc(N2CCC(NC3CC3)C2)nn1 (stereo in doubt) [Compound 105, 2-{6-[(3R)-3-(cyclopropylamino)pyrrolidin-1-yl]pyridazin-3-yl}-4-fluoro-5-(1H-pyrazol-4-yl)phenol] | < 100 | 100 to 1000 |  |
| < 100 | < 100 | < 100 | < 100 | < 100 | < 100 | COc1cc(-c2ccc(-c3ccc(N4CC[C@@H](NC(C)(C)C)C4)nn3)c(O)c2)cnn1 [Compound 209, 2-{6-[(3R)-3-(tert-butylamino)pyrrolidin-1-yl]pyridazin-3-yl}-5-(6-methoxypyridazin-4-yl)phenol] | < 100 | < 100 |  |
| 100 to 1000 | 100 to 1000 | 100 to 1000 | 100 to 1000 | < 100 | 100 to 1000 | Cn1cc2cc(-c3ccc(-c4ccc(N5CCC(NC6CCC6)C5)nn4)c(O)c3)ncc2n1 (stereo not shown) [Compound 320] | 100 to 1000 | 100 to 1000 |  |
| < 100 | < 100 | < 100 | < 100 | < 100 | < 100 | Oc1cc(-c2cn[nH]c2)c(F)cc1-c1ccc(N2CC[C@@H](NC3CCC3)C2)nn1 [Compound 115, 2-{6-[(3R)-3-(cyclobutylamino)pyrrolidin-1-yl]pyridazin-3-yl}-4-fluoro-5-(1H-pyrazol-4-yl)phenol] | < 100 | < 100 |  |
| < 100 | < 100 | 100 to 1000 | 100 to 1000 | < 100 | 100 to 1000 | Cc1ncc(-c2ccc(-c3ccc(N4CC[C@](C)(NCC5CC5)C4)nn3)c(O)c2)s1 (single isomer, unassigned) [Compound 438] | 100 to 1000 | 100 to 1000 |  |
| < 100 | < 100 | 100 to 1000 | 100 to 1000 | < 100 | < 100 | COc1cc(-c2ccc(-c3ccc(N4CC[C@H](NC(C)(C)C)C4)nn3)c(O)c2)ncn1 [Compound 283, 2-{6-[(3S)-3-(tert-butylamino)pyrrolidin-1-yl]pyridazin-3-yl}-5-(6-methoxypyrimidin-4-yl)phenol] | < 100 | 100 to 1000 |  |
| < 100 | < 100 | 100 to 1000 | 100 to 1000 | < 100 | 100 to 1000 | Cc1nnc(-c2ccc(-c3ccc(N4CC[C@H](NCC5CC5)C4)nn3)c(O)c2)s1 [Compound 414] | 100 to 1000 | 100 to 1000 |  |
| < 100 | < 100 | < 100 | < 100 | < 100 | < 100 | COc1cc(-c2ccc(-c3ccc(N4CC[C@H](NC(C)(C)C)C4)nn3)c(O)c2)cnn1 [Compound 210, 2-{6-[(3S)-3-(tert-butylamino)pyrrolidin-1-yl]pyridazin-3-yl}-5-(6-methoxypyridazin-4-yl)phenol] | < 100 | < 100 |  |
